# Where a SMILES comes first, the peptide text is derived from it. [ ]: non-standard residue; d: D form. βAla = NCCC(=O)O
# Legend:
# [1] = test system: U87 cells (lower chamber; HUVEC and astrocytes barrier); assay: Transwell BBB model, peptide passage and accumulation in tumor cells (also with antibody pre-treatment); format: in vitro ADME, human
# Source text: Fluorescently labeled cells were counted in the lower chamber.
# Next, we assessed the mHsp70- and integrin (αvβ3, αvβ5)-mediated penetration of the TKD and RAS70 via the BBB ( Figure 9B ). […] When anti-αvβ3 and anti-αvβ5 mAbs were employed, we detected the decrease of NGL-RGD and RAS70 penetration via the BBB but not the NGL and TKD peptides.
# [2] = test system: human U87 glioblastoma cells; assay: Flow cytometry of FITC-labeled peptide internalization, 24 h (also with antibody pre-treatment); format: cell-based
# Protocol: (§1) The binding of the TKD-sCy5, RAS70-sCy5, and NGL-RGD-sCy5 peptides were analyzed using a CytoFLEX flow cytometer (Beckman Coulter, USA). A single cell suspension of C6, GL261, T98G, U87, U251, ANI, IBD, TMS (0.15×10^6 cells in mL^-1) were incubated for 30 minutes on ice in the dark with peptides in concentration of 75 μg/mL, and then washed with cold PBS solution. Cells without peptides were used as controls. To evaluate incorporation of the fluorescently-labeled peptides for longer period of co-incubation of 24 h cells (C6, GL261, U87, U251) were treated with FITC-labeled peptides, then washed with PBS and assessed on a CytoFLEX flow cytometer (Beckman Coulter, USA). Following FACS analysis cell pellet was further evaluated employing confocal microscopy Leica TCS SP8 (Leica Microsystems, Germany).
# (§2) The incorporation of peptides over longer periods of co-incubation with brain tumor cells was additionally analyzed using a Cytomics FC500 flow cytometer (BeckmanCoulter, USA). Tumor cells (C6, GL261, U87, U251) were incubated with peptides (concentration 50 μg/mL) for 24 hours, washed with PBS. Internalization of FITC-labeled peptides was assessed by determining the mean fluorescence intensity (MFI). According to the study data ( Figure 6A ), it was shown that TKD peptide accumulated in all cell lines – 2120 ± 152 (C6), 2099 ± 107 (GL261), 2145 ± 189 (U87), 2373 ± 201 (U251) compared to the control scramble peptide (NGL) – 378 ± 48 (C6), 344 ± 57 (GL261), 301 ± 66 (U87), 313 ± 56 (U251) (P<0.001). […] Following FACS analysis the cell pellet was collected and evaluated for peptides cell uptake employing confocal microscopy ( Figure 6B ). The obtained microscopy data confirmed higher accumulation of RAS70 peptide in studied cell lines as compared to TKD or scramble peptides.
# (§3) Figure 6 Evaluation of the mHsp70-targeting peptides internalization by glioma cells. (A) Flow cytometric evaluation of FITC-labeled peptide accumulation in tumor cell lines (rat glioma C6, mouse glioma GL261, human glioblastoma U87 and U251) after co-incubation for 24 hours. […] (B) Confocal microscopy assessment of FITC-labeled peptide accumulation in tumor cell lines (rat glioma C6, mouse glioma GL261, human glioblastoma U87 and U251) after co-incubation for 24 hours. […] (C) Analysis of the peptides uptake by human U87 glioblastoma cells following co-incubation for 24 hours.
# To evaluate the mHsp70-mediated uptake of the peptides prior to co-incubation with either TKD or RAS70 peptides cells were pre-treated with anti-Hsp70 antibodies (SPA-810, SPA-815) that are known to target the membrane-bound chaperone on cancer cells ([37]). […] The tripeptide RGD (Arg-Gly-Asp) motif is known to bind to integrins, including αvβ3 and αvβ5 expressed on brain tumor cells and tumor endothelial cells ([38], [39]). […] As expected, we observed the decrease of NGL-RGD and RAS70 internalization by tumor cells but not of TKD or NGL peptides ( Figure 6C ).
# [3] = test system: GL261 cells (lower chamber; HUVEC and astrocytes barrier)
# Protocol: (§4) Then, a peptide labeled with a fluorescent label was introduced into the upper chamber and co-incubation was carried out for 12, 24 and 36 hours. At the end of the incubation, the tumor cells were washed with cold phosphate-buffered saline (PBS) and fixed with a 4% solution of paraformaldehyde in PBS. Nuclei were stained with 4’,6-diamidino-2-phenylindole (DAPI). Fluorescent images were obtained using a Leica TCS SP8 confocal microscope (Leica, Germany). To avoid possible cross-interference of different fluorochromes, images for DAPI and FITC were obtained using a sequential sample scanning method. Fluorescently labeled cells were counted in the lower chamber. To estimate the mHsp70-mediated uptake of chaperone-targeted peptides tumor cells prior to incubation were pre-treated with anti-Hsp70 monoclonal antibodies SPA-810 (1:250, Stressgen) and SPA-815 (1:250 Stressgen). To exclude integrin (αvβ3, αvβ5)-mediated penetration of RAS70 tumor cells prior to incubation with peptides were pre-treated with anti- αvβ3 (1:200 clone LM609, ZMS1030, Sigma-Aldrich, USA), -αvβ5 (1:200 clone P1F6, MAB1961Z, Sigma-Aldrich, USA) monoclonal antibodies.
# (§5) Then, a peptide labeled with a fluorescent dye (FITC) was introduced into the upper chamber and co-incubation was carried out for 12, 24 and 36 hours. At the end of the incubation, the tumor cells were washed with cold phosphate-buffered saline (PBS) and fixed with a 4% solution of paraformaldehyde in PBS. Nuclei were stained with 4’,6-diamidino-2-phenylindole (DAPI).
# (§6) Data from 3 independent experiments are presented as M ± SE. […] Data from 3 independent experiments are presented as M ± SE. ** p < 0.01 for testing mean expression levels.
# [4] = test system: U251 cells (lower chamber; HUVEC and astrocytes barrier)
# Protocol: as §4, §5, §6
# [5] = test system: C6 cells (lower chamber; HUVEC and astrocytes barrier)
# Protocol: as §4, §5, §6
# [6] = test system: GL261 (mouse glioma) cells; assay: Flow cytometry of FITC-labeled peptide internalization, 24 h; format: cell-based; conditions: 50 μg/mL, M ± SE, 3 independent experiments
# Protocol: as §1, §2, §3
# [7] = test system: human glioblastoma U251 cells; assay: as above; format: cell-based; conditions: 50 μg/mL, M ± SE, 3 independent experiments
# Protocol: as §1, §2, §3
# C6 (rat glioma) cells = assay: as above; format: cell-based; conditions: 50 μg/mL, M ± SE, 3 independent experiments
# Protocol: as §1, §2, §3
# [8] = test system: C6, GL261, and T98G cells; assay: MTT test, overall statement for all cell lines studied; conditions: fluorescently labeled peptides, 7.5, 75, 750 µg/mL, 24, 48 and 72 hours
# Protocol: 3-(4,5-dimethylthiazol-2-yl)-2,5-diphenyltetrazolium bromide (MTT) assay was performed to evaluate the cytotoxic effect of TKD-sCy5, RAS70-sCy5, and NGL-RGD-sCy5 peptides. The C6, GL261, and T98G cells were seeded in 96-well plates (Thermo Fisher Scientific, Waltham, USA) at concentration of 5*10^3 cells in 100 µL per well, plates were incubated at 37°C in 5% CO2. After 24 hours, peptides were added to the culture medium for final concentration of 7.5, 75, and 750 μg/mL; plates were incubated for 24, 48 and 72 hours. […] At the end of the incubation period, 1 mg/mL MTT solution was added for 4 hours and dissolved with DMSO. The absorbance was measured at 570 nm using Varioskan LUX Multimode Microplate Reader (Thermo Fisher Scientific, Waltham, USA).
# Subsequently, we analyzed the cytotoxic effect of the peptides (RAS70, TKD, NGL, NGL-RGD) using the MTT test at various peptides concentrations (7.5, 75, 750 µg/mL) and co-incubation times of 24, 48 and 72 hours.
molecule,measurement,setting,value
NGLTLKNDFSRLEG [control scramble peptide],fluorescently labeled tumor cells in the lower chamber,"[1]; transwell BBB model: HUVEC (5×10^5) and astrocytes (5×10^5) in upper chamber, U87 (1×10^4) in lower chamber, FITC-labeled peptide, 36 hours, confocal microscopy count, M ± SE, 3 independent experiments",211 ± 41 cells
same,"penetration via the BBB after combined anti-αvβ3, anti-αvβ5 and anti-Hsp70 mAbs","[1]; transwell, U87 cells, combined antibody treatment",excluding
same,"mean fluorescence intensity (MFI), internalization of FITC-labeled peptide","[2]; U87, 50 μg/mL, 24 hours, flow cytometry, M ± SE, 3 independent experiments",301 ± 66
same,fluorescently labeled tumor cells in the lower chamber,[3],188 ± 47 cells
same,fluorescently labeled tumor cells in the lower chamber,[4],221 ± 38 cells
same,fluorescently labeled tumor cells in the lower chamber,[5],211 ± 29 cells
same,"mean fluorescence intensity (MFI), internalization of FITC-labeled peptide",[6],344 ± 57
same,"mean fluorescence intensity (MFI), internalization of FITC-labeled peptide",[7],313 ± 56
same,"mean fluorescence intensity (MFI), internalization of FITC-labeled peptide",C6 (rat glioma) cells,378 ± 48
CC(C)C[C@H](NC(=O)CNC(=O)[C@@H](N)CC(N)=O)C(=O)N[C@H](C(=O)N[C@@H](CC(C)C)C(=O)N[C@@H](CCCCN)C(=O)N[C@@H](CC(N)=O)C(=O)N[C@@H](CC(=O)O)C(=O)N[C@@H](Cc1ccccc1)C(=O)N[C@@H](CO)C(=O)N[C@@H](CCCNC(=N)N)C(=O)N[C@@H](CC(C)C)C(=O)N[C@@H](CCC(=O)O)C(=O)NCC(=O)NCCC(=O)N[C@@H](CCCNC(=N)N)C(=O)NCC(=O)N[C@@H](CC(=O)O)C(=O)O)[C@@H](C)O [NGL-RGD] (H-NGLTLKNDFSRLEG[βAla]RGD-OH),peptide internalization after pre-treatment with anti-αvβ3 and -αvβ5 antibodies,"[2]; U87, 24 hours, cells pre-treated with anti-αvβ3 (LM609) and anti-αvβ5 (P1F6) mAbs (1:200)",decrease
same,peptide uptake after pre-treatment with both anti-Hsp70 and anti-αvβ3/-αvβ5 mAbs,"[2]; U87, 24 hours, combination of antibodies",significant abrogation
same,cytotoxic effect (MTT test),[8],did not reveal the toxic effect

# From paper PMC11973282, “RAS70 peptide targets multiforme glioblastoma by binding to the plasma membrane heat shock protein HSP70” (Frontiers in Oncology, 2025)
